Tests used:
Assay type in all cases: cell-based, human
Conditions in all cases: 4 h
[1] = system: 5-HT receptor 2B, mRNA; assay: Microarray gene expression in CD3+ lymphocytes, probe ILMN_1735764 (HTR2B)
Procedure: (§1) CD3+ lymphocytes were isolated from the blood of haematologically normal volunteers. Cells placed into 25 cm^3 flasks at a concentration of 1×10^6/ml, and left to equilibrate in an incubator with a humidified atmosphere and 5% CO2 in air at 37° C. […] RNA extraction was performed using Trizol according to standard procedures, before being processed for microarray analysis according to the standard methodologies. Briefly, equal amounts of biotinylated cRNA was hybridised to the Illumina human HT 12-v3 arrays for 18 h and subsequently processed according to manufacturer's instructions before scanning on an Illumina BeadArray Reader. The image data were processed using default values in GenomeStudio v2009.1 with imputation of missing data, before loading onto GeneSpring v9.0 for data normalisation and filtering. Data analyses were performed using Excel software, and the ratio of gene expression signals in treated vs. untreated calculated.

[2] = system: 5-HT receptor 2C, mRNA; assay: Microarray gene expression in CD3+ lymphocytes, probe ILMN_1801357 (HTR2C)
Procedure: as §1

[3] = system: 5-HT receptor 3A, transcript variant 2, mRNA; assay: Microarray gene expression in CD3+ lymphocytes, probe ILMN_1662070 (HTR3A)
Procedure: as §1

[4] = system: 5-HT receptor 4, transcript variant a, mRNA; assay: Microarray gene expression in CD3+ lymphocytes, probe ILMN_1676350 (HTR4)
Procedure: as §1

[5] = system: 5-HT receptor 7 (adenylate cyclase-coupled), transcript variant a, mRNA; assay: Microarray gene expression in CD3+ lymphocytes, probe ILMN_1744217 (HTR7)
Procedure: as §1

[6] = system: 5-HT receptor 3A, transcript variant 1, mRNA; assay: Microarray gene expression in CD3+ lymphocytes, probe ILMN_1681492 (HTR3A)
Procedure: as §1

[7] = system: mRNA for one or more of 5-HT receptor proteins; assay: Microarray gene expression in CD3+ lymphocytes, summary over 5-HT receptors
Procedure: as §1

[8] = system: 5-HT receptor 1E, mRNA; assay: Microarray gene expression in CD3+ lymphocytes, probe ILMN_1794095 (HTR1E)
Procedure: as §1

[9] = system: 5-HT receptor 4, transcript variant hb, mRNA; assay: Microarray gene expression in CD3+ lymphocytes, probe ILMN_1808258 (HTR4)
Procedure: as §1

[10] = system: 5-HT receptor 3A, transcript variant 2, mRNA; assay: Microarray gene expression in CD3+ lymphocytes, probe ILMN_2371079 (HTR3A)
Procedure: as §1

SMILES: O=C1CC[C@@]2(O)[C@H]3Cc4ccc(O)c5c4[C@@]2(CCN3CC2CC2)[C@H]1O5 [NTX, 17-cyclopropylmethyl-4.5-epoxy-3,14-dihydroxymorphinan-6-one]
- gene expression signal, HTR2B ([1]; LDN 10 nM): 147.45
- gene expression signal, HTR2B ([1]; NTX 10 uM): 177.95
- gene expression signal, HTR2C ([2]; LDN 10 nM): 85.50
- gene expression signal, HTR2C ([2]; NTX 10 uM): 89.50
- gene expression signal, HTR3A transcript variant 2 ([3]; LDN 10 nM): 82.35
- gene expression signal, HTR3A transcript variant 2 ([3]; NTX 10 uM): 80.60
- gene expression signal, HTR4 transcript variant a ([4]; LDN 10 nM): 100.20
- gene expression signal, HTR4 transcript variant a ([4]; NTX 10 uM): 96.10
- gene expression signal, HTR7 transcript variant a ([5]; LDN 10 nM): 80.00
- gene expression signal, HTR7 transcript variant a ([5]; NTX 10 uM): 86.60
- gene expression signal, HTR3A transcript variant 1 ([6]; LDN 10 nM): 94.00
- gene expression signal, HTR3A transcript variant 1 ([6]; NTX 10 uM): 86.75
- levels of mRNA for one or more of 5-HT receptor proteins ([7]; higher dose naltrexone (10 uM)): increase the levels of mRNA
- levels of mRNA for one or more of 5-HT receptor proteins ([7]; low dose naltrexone (10 nM)): increase the levels of mRNA
- gene expression signal, HTR1E ([8]; LDN 10 nM): 101.20
- gene expression signal, HTR1E ([8]; NTX 10 uM): 95.70
- gene expression signal, HTR4 transcript variant hb ([9]; LDN 10 nM): 93.50
- gene expression signal, HTR4 transcript variant hb ([9]; NTX 10 uM): 88.20
- gene expression signal, HTR3A transcript variant 2 ([10]; LDN 10 nM): 124.70
- gene expression signal, HTR3A transcript variant 2 ([10]; NTX 10 uM): 151.75
